From publication PMC7139940, “Comparative Analysis of High-Throughput Assays of Family-1 Plant Glycosyltransferases” (International Journal of Molecular Sciences, 2020)

These molecules were tested on T1, UGT72B27 (assay: UDP-Glo luminescent UDP release assay, 384-well). Conditions: 100 µM UDP-glucose, 50 mM Tris/HCl pH 7.5, 30 °C, 10 min, heat stop; poorly soluble, high DMSO; read-out: b. UDP-Glo^TM Assay / KM.
T1 construct: recombinant GST fusion (pGEX-4T-1) from E. coli BL21(DE3) pLysS, purified on GST resin
Type: biochemical, Vitis vinifera
Excerpt: UDP-Glo luminescent UDP release assay, 384-well on UGT72B27

Question: How did the Km turn out when `Oc1ccc(/C=C/c2cc(O)cc(O)c2)cc1` [trans-Resveratrol] was run?
Answer: 21 ± 5 µM

Same assay, conditions: 100 µM UDP-glucose, 50 mM Tris/HCl pH 7.5, 30 °C, 10 min, heat stop; read-out: b. UDP-Glo^TM Assay / KM

Question: How did the Km turn out when `Cc1ccccc1O` [o-Cresol] was run?
Answer: 40 ± 5 µM

Question: How did the Km turn out when `COc1ccccc1O` [Guaiacol, 2-Methoxyphenol] was run?
Answer: 23 ± 1 µM

Question: For `COc1cccc(OC)c1O` [DMP, 2,6-Dimethoxyphenol], which Km is on record?
Answer: 23 ± 3 µM

Question: How did the Km turn out when `CC1=C(O)C(=O)C(C)O1` (centres unmarked) [Furaneol] was run?
Answer: 453 ± 35 µM

Question: For `Cc1ccc(C(C)C)c(O)c1` [Thymol], which Km is on record?
Answer: 28 ± 7 µM

Question: For `COc1cc(C)cc(OC)c1O` [MDMP, 4-Methyl-2,6-dimethoxyphenol], which Km is on record?
Answer: 173 ± 28 µM

Question: For `Oc1ccccc1` [Phenol], which Km is on record?
Answer: 153 ± 24 µM

Question: Which Km does the source give for `Oc1cc(O)cc(O)c1` [Phloroglucinol] here?
Answer: 35 ± 4 µM

Question: With `COc1cc(C)ccc1O` [MMP, 2-Methoxy-4-methylphenol] as the molecule, how does the Km read?
Answer: 41 ± 9 µM

Question: For `Cc1cccc(O)c1` [m-Cresol], which Km is on record?
Answer: 14 ± 3 µM
